The text below walks through data of patent publication US8835484B2, “Naphthocyanines for use as contrast agents” (Alamedics GmbH & Co. KG, priority 2010, dated 2014).

One may read the melting point as the temperature, or range, at which the solid turns liquid.

The nature of series [1]: Solid cyanine dye stability comparison. The format is physicochemical. As to conditions: storage. An excerpt:
Decomposition of the solid dye results in a red coloration of the solid and the solution. Carboxylic acid esters, especially methyl ester, are particularly sensitive in addition to the bromides.

The next series has as its system lens capsule. Description: Dye tests on porcine eyes (lens capsule staining). Also on record: key: +++: visually assessed very strong coloration; ++: good coloration; +: satisfactory coloration; −: weak or absent coloration. As to conditions: incubated, rinsed after one minute. Here is the method:
For the dye test, in each case 5 mg dye was dissolved in 500 μL ethanol and diluted to 2 mL with BSS Plus solution as the stock solution, and then correspondingly further diluted. As an alternative, one can prepare stock solutions of the dye by dissolving, for example, 5 mg dye in 1 mL distilled water, adding 7 mL BSS solution and then combining with 1 mL NaCl solution having an osmolality of 620 (approximately 2%) in order to restore the original osmolality of the BSS solution (308). This stock solution can be correspondingly further diluted with BSS solution as required. Enucleated porcine eyes were used having a post mortem time period of a few hours. To dye the lens capsule, the cornea was first removed. Thereafter, the iris was resected and the capsular support was severed. The lens with intact lens capsule was removed and placed in a bowl filled with BSS. The lenses were thereafter incubated with the dyes according to the invention at various concentrations and then rinsed after one minute. The dye pattern was photographically documented, whereby the coloration was assessed without additional illumination, and fluorescence was assessed with illumination (Xenon lamp, halogen lamp with typical endoillumination source and fiber optics). The lens capsule is a very good model for dyeing due to the fact that it is a basal membrane, as is the ILM of the retina. Both structures are important target structures in eye surgery.

The nature of series [2]: Fluorescence quantum yield. The format is physicochemical. The conditions noted are these: CHCl3; Reference: S-13 with Φ=1.00. An excerpt:
IR spectra: Perkin Elmer Spectrum BX II, using a diamond anvil cell; UV/Vis spectra: Varian Cary 5000 and Bruins Omega 20; fluorescence spectra: Varian Eclispe; NMR spectroscopy: Varian Vnmrs 600 (600 MHz, 400 MHz, 200 MHz); mass spectrometry: Thermo Finnigan LQT FT.

Series [3] in a line: Solid cyanine dye stability comparison. The format is physicochemical. As to conditions: after work-up, forming a yellow color.
Series [4] deals with internal limiting membrane (ILM). The conditions noted are these: literature experiments; cited from earlier work.
A further series has as its system retina. The conditions noted are these: cited from earlier work.

Some results are limits rather than exact numbers.

Take `CC1(C)C(/C=C/C=C2\N(CCC(=O)O)c3ccc4c(S(=O)(=O)O)cccc4c3C2(C)C)=[N+](CCC(=O)O)c2ccc3c(S(=O)(=O)O)cccc3c21.[Br-]` [Dye 6b, 3,3′-Di-(2-carboxyethyl)-1,1,1′,1′-tetramethyl-1H-disulfobenzo[e]indocarbocyanine bromide]: the melting point was > 180 °C (dec.). In addition, in series [1], the Stability entry is on record as “Decomposition after a few days”. In addition, the “coloration of lens capsule” value in the series on lens capsule (dye concentration 0.5%) is reported as “+++”. For the same compound, the “coloration of lens capsule” value in the series on lens capsule (dye concentration 1.0) is recorded as “+++”. The Fluorescence quantum yield in series [2] worked out at 0.21.
Regarding `CC1(C)C(/C=C/C=C2\N(CCCCCCCCCCC(=O)O)c3ccc4c(S(=O)(=O)O)cccc4c3C2(C)C)=[N+](CCCCCCCCCCC(=O)O)c2ccc3c(S(=O)(=O)O)cccc3c21.[Br-]` [Dye 6c, 3,3′-Di-(10-carboxydecyl)-1,1,1′,1′-tetramethyl-1H-disulfobenzo[e]indocarbocyanine bromide], the melting point was > 150 °C (dec.). Also, in series [1], the Stability result was “No decomposition after 3 months”. The “coloration of lens capsule” value in the series on lens capsule (dye concentration 0.5%) was “++”. Further, the “coloration of lens capsule” value in the series with lens capsule (dye concentration 1.0) is on record as “++”. In addition, in series [2], the Fluorescence quantum yield is listed as 0.31.
With `COC(=O)CCCCCCCCCCN1/C(=C\C=C\C2=[N+](CCCCCCCCCCC(=O)OC)c3ccc4c(S(=O)(=O)O)cccc4c3C2(C)C)C(C)(C)c2c1ccc1c(S(=O)(=O)O)cccc21.[Br-]` [Dye 6d, 3,3′-Di-(10-methoxycarbonyldecyl)-1,1,1′,1′-tetramethyl-1H-disulfobenzo[e]indocarbocyanine bromide], the melting point is > 150 °C (dec.). The Stability result in series [1] is on record as “Decomposition after 1 month”. Also, the “coloration of lens capsule” value in the series with lens capsule (dye concentration 0.5%) was “decomposed”. Further, in the series on lens capsule (dye concentration 1.0), the “coloration of lens capsule” value was “decomposed”. Moreover, the Fluorescence quantum yield in series [2] turned out to be 0.25.
As for `CCOC(=O)CCN1/C(=C\C=C\C2=[N+](CCC(=O)OCC)c3ccc4c(S(=O)(=O)O)cccc4c3C2(C)C)C(C)(C)c2c1ccc1c(S(=O)(=O)O)cccc21.[Br-]` [Dye 6e, 3,3′-Di-(2-ethoxycarbonylethyl)-1,1,1′,1′-tetramethyl-1H-disulfobenzo[e]indocarbocyanine bromide], the melting point is > 150 °C (dec.). Besides, in series [1], the Stability entry is on record as “Decomposition after 2 months”. For the same compound, in the series with lens capsule (dye concentration 0.5%), the “coloration of lens capsule” value is recorded as “decomposed”. In addition, in the series on lens capsule (dye concentration 1.0), the “coloration of lens capsule” value is “decomposed”. For the same compound, the Fluorescence quantum yield in series [2] came to 0.18.
With `CCOC(=O)CCCCN1/C(=C\C=C\C2=[N+](CCCCC(=O)OCC)c3ccc4c(S(=O)(=O)O)cccc4c3C2(C)C)C(C)(C)c2c1ccc1c(S(=O)(=O)O)cccc21.[Br-]` [Dye 6f, 3,3′-Di-(4-ethoxycarbonylbutyl)-1,1,1′,1′-tetramethyl-1H-disulfobenzo[e]indocarbocyanine bromide], the melting point is > 150 °C (dec.). In addition, the Stability result in series [1] is “Decomposition after 2 months”. Further, the “coloration of lens capsule” value in the series on lens capsule (dye concentration 0.5%) was “decomposed”. Besides, the “coloration of lens capsule” value with lens capsule (dye concentration 1.0) was “decomposed”. In series [2], this compound had a Fluorescence quantum yield of 0.11. In addition, the “decomposition of the dye after preparation” value in series [3] is “decomposes as soon as after one day”.
Turning to `CCOC(=O)CCCCCN1/C(=C\C=C\C2=[N+](CCCCCC(=O)OCC)c3ccc4c(S(=O)(=O)O)cccc4c3C2(C)C)C(C)(C)c2c1ccc1c(S(=O)(=O)O)cccc21.[Br-]` [Dye 6g, 3,3′-Di-(5-ethoxycarbonylpentyl)-1,1,1′,1′-tetramethyl-1H-disulfobenzo[e]indocarbocyanine bromide], the melting point was > 150 °C (dec.). In addition, in series [1], the Stability result was “No decomposition after 3 months”. For the same compound, in the series with lens capsule (dye concentration 0.5%), the “coloration of lens capsule” value was “++”. Besides, the “coloration of lens capsule” value with lens capsule (dye concentration 1.0) is recorded as “++”. The Fluorescence quantum yield in series [2] came to 0.22.
Turning to `CCCCCN1/C(=C\C=C\C2=[N+](CCCCC)c3ccc4ccccc4c3C2(C)C)C(C)(C)c2c1ccc1ccccc21.[Br-]` [Dye 6j, 3,3′-Di-(pentyl)-1,1,1′,1′-tetramethyl-1H-dibenzo[e]indocarbocyanine bromide], the melting point is > 150 °C (dec.). The same compound showed a Fluorescence quantum yield in series [2] of 0.20.
Regarding `CC1(C)C(/C=C/C=C/C=C/C=C2\N(CCCCS(=O)(=O)O)c3ccc4ccccc4c3C2(C)C)=[N+](CCCCS(=O)(=O)[O-])c2ccc3ccccc3c21` [ICG, indocyanine green], the “staining of the ILM” value in series [4] is recorded as “Selective staining”. Further, the “toxic effect on the retina” value in the series on retina is “toxic effect on the retina which is difficult to control”.
